Measured values published in patent US4501747A, “Certain amide derivatives of 2-guanidino-thiazoles and compositions containing same” (Sanofi, priority 1982, dated 1985).
Where a name gives a salt, the structure may show the parent alone. Read-outs that look alike come from different tables or passages of the source.

Assays:
histamine H2 receptors = target: T1, histamine H2 receptors (Rattus norvegicus, UniProt P25102); assay: antisecretory activity: antagonism of the gastric acid hypersecretion induced by histamine in the atropinized rat (Ghosh and Schild, modified according to Black et al.); format: in vivo; conditions: for ED50: read-out: DI50 (ID50: dose which inhibits by 50% the gastric hypersecretion induced by histamine)
T1 construct: from tissue; host or cells: stomach of the atropinized rat, in vivo (endogenous receptor)
T1 sequence (P25102 whole entry): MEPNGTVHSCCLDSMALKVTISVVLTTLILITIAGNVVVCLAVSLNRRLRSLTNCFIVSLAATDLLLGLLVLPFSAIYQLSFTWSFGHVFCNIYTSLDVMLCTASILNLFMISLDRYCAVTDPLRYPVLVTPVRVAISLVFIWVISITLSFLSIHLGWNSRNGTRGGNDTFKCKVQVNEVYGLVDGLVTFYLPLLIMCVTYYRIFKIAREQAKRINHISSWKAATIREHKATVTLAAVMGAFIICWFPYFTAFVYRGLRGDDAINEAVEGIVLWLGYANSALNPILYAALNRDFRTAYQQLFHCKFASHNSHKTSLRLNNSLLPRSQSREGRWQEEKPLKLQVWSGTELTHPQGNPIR
Description: According to this test, a gastric acid hypersecretion is induced by intravenous infusion of a sub-maximal dose of histamine equivalent to 15 mcmol/kg/hour and the gastric secretion is measured by perfusion of a physiological solution at a constant speed in the stomach of the animal.
Such a ID50 represents the index of the gastric H2 -blocking action.

mouse = assay: acute toxicity by intraperitoneal route in the mouse; format: in vivo; conditions: 375 mg/kg
Text: (§1) With respect of their degree of activity, the compounds of the present invention are poorly toxic.

[1] = as above; format: in vivo; conditions: in vivo, ip
Text: as §1

rat stomach = conditions: i.v., as maleate; cited from earlier work
[2] = atropinized rat, intravenous route, single administration, histamine i.v. infusion 15 mcmol/kg/hour

Structure (SMILES)	ED50 (histamine H2 receptors; [2]) [µmol/kg]	Relative potency (cimetidine = 1) (histamine H2 receptors; atropinized rat, i.v.)	further results
N=C(N)Nc1nc(CSCCNC(=O)c2cccc(NS(=O)(=O)c3ccccc3)c2)cs1 [SR 57963 A, neutral fumarate of 3-benzenesulfonamido-N-[2-(2-guanidinothiazol-4-ylmethylthio)ethyl]benzamide]	0.065	14.6	
CS(=O)(=O)Nc1ccc(C(=O)NCCSCc2csc(NC(=N)N)n2)cc1 [Compound A, 4-methanesulfonamido-N-[2-(2-guanidinothiazol-4-ylmethylthio)ethyl]benzamide, reference compound]	1.66	0.57	
N=C(N)Nc1nc(CSCCNC(=O)c2ccc[n+]([O-])c2)cs1 [SR 57957 A, neutral fumarate of N-[2-(2-guanidinothiazol-4-ylmethylthio)ethyl]-3-pyridine carboxamide 1-oxide]	0.1	9.5	mortality (mouse): does not cause any mortality; LD50 [1]: > 900 µmol/kg
CS(=O)(=O)Nc1cccc(C(=O)NCCSCc2csc(NC(=N)N)n2)c1.Cl [SR 57938 A, 3-methanesulfonamido-N-[2-(2-guanidinothiazol-4-ylmethylthio)ethyl]benzamide hydrochloride]		6.33	activity compared with reference compounds (histamine H2 receptors; comparison in words, from Table I, atropinized rat, i.v.): ten times more active than "Compound A"; ED50 (histamine H2 receptors; rat, iv): 0.15 µmol/kg
CNC(=C[N+](=O)[O-])NCCSCc1ccc(CN(C)C)o1 [Ranitidine, N-[2-[[5-[(dimethylamino)methyl]furfuryl]thio]ethyl]-N'-methyl-2-nitro-1,1-ethenediamine, reference compound]		3.80	
N=C(N)Nc1nc(CSCCNC=O)cs1 [2-guanidino-4-[(2-formamido)ethylthiomethyl]thiazol]			ED50 (rat stomach): 0.25 mg/kg
N=C(N)Nc1nc(CSCCNC(=O)c2cccnc2)cs1 [Compound B, N-[2-(2-guanidinothiazol-4-ylmethylthio)ethyl]nicotinamide, reference compound]	0.28	7.39	LD50 [1]: 342 µmol/kg
